The values below come from PubChem BioAssay (NCI).

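Following 48 hours of exposure in 96-well plates, responses at five concentrations were used to interpolate endpoints linearly. The concentration for 50% growth inhibition is given as GI50. Definition used: TGI = concentration required for complete inhibition of growth.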

Test systems include UO-31 renal; SF-539 CNS; HOP-62 NSCLC; RPMI-8226 leukemia; NCI-H23 lung; MALME-3M melanoma; ACHN renal; NCI-H460 lung; OVCAR-3 ovarian; SR leukemia.
Experiment in all cases: inhibition of tumour cell growth, NCI panel, 48 h

Turning to `O=NN1CCN=C1c1ccc([N+](=O)[O-])cc1`, the TGI with UO-31 renal, in the assay with SF-539 CNS, in the assay with HOP-62 NSCLC, in the assay on RPMI-8226 leukemia, with NCI-H23 lung and in the assay on MALME-3M melanoma was over 100 µM throughout. In addition, the TGI with ACHN renal, in the assay on NCI-H460 lung, in the assay with OVCAR-3 ovarian and with SR leukemia was over 100 µM throughout.

As to `O=C(NNc1ccccc1)c1ccc(Cl)c(Cl)c1`, the TGI in the assay with UO-31 renal is over 100 µM; in the assay with SF-539 CNS it was 0.133 µM; with HOP-62 NSCLC, over 100 µM; in the assay with RPMI-8226 leukemia, over 54.4 µM; in the assay with NCI-H23 lung, over 100 µM; in the assay on MALME-3M melanoma, over 92.5 µM. For the same compound, the TGI in the assay with ACHN renal is over 100 µM; in the assay on NCI-H460 lung it was over 100 µM; in the assay with OVCAR-3 ovarian it was over 94 µM; in the assay with SR leukemia, over 100 µM.

Take `O=C(CSC(c1ccccc1)c1ccccc1)N/N=C/c1ccccc1Cl`: the GI50 is 30.9 µM with UO-31 renal; 29 µM in the assay with SF-539 CNS; 22.7 µM in the assay on HOP-62 NSCLC; 8.73 µM in the assay with RPMI-8226 leukemia; 12.8 µM in the assay with NCI-H23 lung; 6.28 µM with MALME-3M melanoma. Moreover, the GI50 in the assay with ACHN renal was 2.18 µM; in the assay on NCI-H460 lung it was 34 µM; in the assay with OVCAR-3 ovarian, 15.6 µM; in the assay on SR leukemia it was 9.48 µM. Also, the TGI is over 100 µM in the assay with UO-31 renal; over 90.2 µM with SF-539 CNS; over 76.8 µM in the assay on HOP-62 NSCLC; over 40.6 µM with RPMI-8226 leukemia; 61.6 µM in the assay on NCI-H23 lung; 42.5 µM in the assay on MALME-3M melanoma. The TGI in the assay with ACHN renal is 25.2 µM; with NCI-H460 lung it was over 63.2 µM; in the assay with OVCAR-3 ovarian, 57.3 µM; with SR leukemia, 26.7 µM.

On to `CC1=NN(c2cccc(Cl)c2)C(=O)/C1=C\C=C\c1ccccc1`, for which the GI50 in the assay on UO-31 renal is 1.62 µM; in the assay on SF-539 CNS, 2.5 µM; in the assay on HOP-62 NSCLC, 3.18 µM; with RPMI-8226 leukemia it was 2.91 µM; with NCI-H23 lung it was 2.32 µM; with MALME-3M melanoma, 2.76 µM. Further, the GI50 is 1.79 µM in the assay on ACHN renal, 1.67 µM in the assay on NCI-H460 lung, 2.18 µM in the assay with OVCAR-3 ovarian and 2.36 µM in the assay with SR leukemia. In addition, the TGI with UO-31 renal stood at 3.49 µM; in the assay on SF-539 CNS, 6.12 µM; with HOP-62 NSCLC it was 11.1 µM; in the assay with RPMI-8226 leukemia, 14.3 µM; with NCI-H23 lung, 6.13 µM; with MALME-3M melanoma, 9.19 µM. Besides, the TGI was 3.34 µM with ACHN renal, 3.28 µM in the assay with NCI-H460 lung, 4.4 µM in the assay on OVCAR-3 ovarian and over 100 µM with SR leukemia.

For `C[C@H]1COCCN1c1nc(-c2cnc(N)cc2C(F)F)nc(N2CCOCC2)n1`, the GI50 in the assay with UO-31 renal was 0.047 µM; in the assay with SF-539 CNS, 0.235 µM; in the assay on HOP-62 NSCLC it was 0.414 µM; in the assay with RPMI-8226 leukemia it was 0.134 µM; with NCI-H23 lung it was 0.274 µM; in the assay with MALME-3M melanoma it was 0.104 µM. The GI50 in the assay with ACHN renal is 0.207 µM; with NCI-H460 lung it was 0.113 µM; in the assay on OVCAR-3 ovarian, 0.224 µM; in the assay on SR leukemia it was 0.275 µM. Further, the TGI in the assay with UO-31 renal is over 100 µM; with SF-539 CNS, 1.45 µM; in the assay with HOP-62 NSCLC, over 100 µM; with RPMI-8226 leukemia it was 4.91 µM; with NCI-H23 lung, over 100 µM; with MALME-3M melanoma it was 0.721 µM. For the same compound, the TGI is over 100 µM with ACHN renal, over 100 µM in the assay with NCI-H460 lung, over 100 µM in the assay on OVCAR-3 ovarian and 29.1 µM in the assay on SR leukemia.

For `Cc1ccnc2c(NC(C)CCCN)cc(O)c(O)c12` (stereo not given), the GI50 was 61.9 µM in the assay on UO-31 renal; 18.5 µM in the assay on SF-539 CNS; 26.1 µM in the assay with HOP-62 NSCLC; 11 µM in the assay on RPMI-8226 leukemia; 3.98 µM in the assay on NCI-H23 lung; 19.4 µM in the assay on MALME-3M melanoma. For the same compound, the GI50 in the assay on ACHN renal is over 100 µM; in the assay with NCI-H460 lung, 27.4 µM; with OVCAR-3 ovarian, 2.45 µM; with SR leukemia, 29.3 µM. Besides, the TGI in the assay with UO-31 renal was over 100 µM; in the assay on SF-539 CNS it was 41.9 µM; with HOP-62 NSCLC, over 100 µM; in the assay with RPMI-8226 leukemia it was 76.6 µM; in the assay with NCI-H23 lung, 27.3 µM; with MALME-3M melanoma, 52.9 µM. Moreover, the TGI with ACHN renal was over 100 µM; in the assay on NCI-H460 lung, over 100 µM; in the assay with OVCAR-3 ovarian, 7.24 µM; in the assay with SR leukemia it was 90.3 µM.

Consider `Cn1cc(C2=C(c3cc[nH]c3)C(=O)NC2=O)c2ccccc21`, for which the GI50 in the assay on UO-31 renal was over 18.5 µM; in the assay on SF-539 CNS, over 25 µM; in the assay on HOP-62 NSCLC, over 25 µM; in the assay on RPMI-8226 leukemia it was over 25 µM; in the assay on NCI-H23 lung it was over 25 µM; with MALME-3M melanoma it was over 25 µM. Also, the GI50 was over 25 µM in the assay on ACHN renal, over 25 µM in the assay with NCI-H460 lung, over 22.7 µM in the assay with OVCAR-3 ovarian and 12 µM in the assay on SR leukemia. The TGI with UO-31 renal, in the assay on SF-539 CNS, in the assay on HOP-62 NSCLC, in the assay with RPMI-8226 leukemia, in the assay on NCI-H23 lung and in the assay on MALME-3M melanoma was over 25 µM in each case. Further, the TGI with ACHN renal, with NCI-H460 lung, in the assay with OVCAR-3 ovarian and in the assay with SR leukemia was over 25 µM in each case.

With `C[C@@]1(C(=O)O)CCC[C@]2(C)C1CC[C@]13C[C@@](O)(CO)[C@](O)(CC[C@]12O)C3` (stereo not given in full), the GI50 with UO-31 renal, in the assay with SF-539 CNS, with HOP-62 NSCLC, with RPMI-8226 leukemia, in the assay with NCI-H23 lung and in the assay on MALME-3M melanoma was over 100 µM each time. Besides, the GI50 with ACHN renal, in the assay on NCI-H460 lung, in the assay on OVCAR-3 ovarian and in the assay on SR leukemia was over 100 µM throughout. Also, the TGI in the assay on UO-31 renal, in the assay with SF-539 CNS, in the assay with HOP-62 NSCLC, in the assay on RPMI-8226 leukemia, in the assay on NCI-H23 lung and in the assay on MALME-3M melanoma was over 100 µM in each case. For the same compound, the TGI in the assay with ACHN renal, in the assay on NCI-H460 lung, in the assay with OVCAR-3 ovarian and with SR leukemia was over 100 µM each time.

In the case of `CN(C)C(=S)/N=c1\ssc(=S)n1Cc1ccco1`, the TGI was over 100 µM in the assay on UO-31 renal; 7.66 µM in the assay with SF-539 CNS; over 63.1 µM in the assay on HOP-62 NSCLC; over 100 µM with RPMI-8226 leukemia; 45.6 µM in the assay on NCI-H23 lung; over 100 µM in the assay with MALME-3M melanoma. Also, the TGI in the assay with ACHN renal was over 100 µM; in the assay with NCI-H460 lung, over 64.8 µM; in the assay with OVCAR-3 ovarian, 9.58 µM; with SR leukemia, over 100 µM.

Take `Cc1cc(N(CCC#N)CCC#N)ccc1/C=C(\NC(=O)/C=C/c1ccccc1)C(=O)Nc1ccc(Cl)cc1`: the TGI with UO-31 renal was over 100 µM; in the assay with SF-539 CNS it was over 100 µM; in the assay with HOP-62 NSCLC, over 100 µM; in the assay with RPMI-8226 leukemia, over 100 µM; with NCI-H23 lung, over 100 µM; in the assay with MALME-3M melanoma it was over 50.9 µM. Also, the TGI in the assay on ACHN renal, with NCI-H460 lung, in the assay with OVCAR-3 ovarian and in the assay on SR leukemia was over 100 µM throughout.

For `Cc1nn(Cc2ccccc2)cc1C(=O)Nc1sc2c(c1C(N)=O)CCC(=O)C2`, the GI50 in the assay on UO-31 renal was 1.39 µM; in the assay with SF-539 CNS, 1.36 µM; with HOP-62 NSCLC, 2.45 µM; in the assay with RPMI-8226 leukemia, 1.18 µM; in the assay with NCI-H23 lung it was 2.52 µM; in the assay with MALME-3M melanoma, 1.89 µM. Moreover, the GI50 was 1.65 µM in the assay with ACHN renal, 3.52 µM in the assay on NCI-H460 lung, 1.7 µM in the assay on OVCAR-3 ovarian and 1.41 µM in the assay on SR leukemia. For the same compound, the TGI in the assay with UO-31 renal is 2.88 µM; in the assay with SF-539 CNS, 3.02 µM; in the assay on HOP-62 NSCLC, over 100 µM; in the assay with RPMI-8226 leukemia it was 4.09 µM; in the assay with NCI-H23 lung it was 7.22 µM; in the assay with MALME-3M melanoma it was 3.79 µM. The TGI in the assay on ACHN renal came to 3.35 µM; in the assay with NCI-H460 lung it was 21.2 µM; in the assay on OVCAR-3 ovarian, 3.43 µM; in the assay on SR leukemia, 8.81 µM.
